The results in this text go back to ChEMBL document CHEMBL1944621, “Design, synthesis, and biological evaluation of novel (1-thioxo-1,2,3,4-tetrahydro-β-carbolin-9-yl)acetic acids as selective inhibitors for AKR1B1” (Bioorg Med Chem, 2012).

In assay [1] the target is T1, Aldo-keto reductase family 1 member B1 (Homo sapiens, UniProt P15121). Description: Inhibition of human recombinant AKR1B1 expressed in Escherichia coli BL21 cells using pyridine-3-aldehyde as substrate by spectrophotometry.
The target in assay [2] is Aldo-keto reductase family 1 member B10 (Homo sapiens, UniProt O60218). Description: Inhibition of recombinant N-His6-tagged AKR1B10 expressed in Escherichia coli BL21 cells using pyridine-3-aldehyde as substrate by spectrophotometry.
The target of assay [3] is T2, Aldo-keto reductase family 1 member A1 (Homo sapiens, UniProt P14550).
T2 sequence (P14550 whole entry): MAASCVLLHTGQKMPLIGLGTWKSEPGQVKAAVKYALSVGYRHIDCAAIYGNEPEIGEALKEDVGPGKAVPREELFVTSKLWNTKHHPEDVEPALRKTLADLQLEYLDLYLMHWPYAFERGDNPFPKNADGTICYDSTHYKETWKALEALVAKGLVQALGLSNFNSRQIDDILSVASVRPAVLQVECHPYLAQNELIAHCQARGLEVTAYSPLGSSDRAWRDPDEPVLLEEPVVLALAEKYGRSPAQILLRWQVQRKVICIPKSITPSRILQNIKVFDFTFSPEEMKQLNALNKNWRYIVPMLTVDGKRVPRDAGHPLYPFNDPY
The assay is described as follows: Inhibition of human recombinant AKR1A1 expressed in Escherichia coli BL21 cells using D-glucuronate as substrate by spectrophotometry.

In assay [4] the target is T1, Aldo-keto reductase family 1 member B1.
Description: Noncompetitive inhibition of human recombinant AKR1B1 using pyridine-3-aldehyde as substrate by Lineweaver-Burk plot analysis

Sequence of Aldo-keto reductase family 1 member B10 (O60218 whole entry): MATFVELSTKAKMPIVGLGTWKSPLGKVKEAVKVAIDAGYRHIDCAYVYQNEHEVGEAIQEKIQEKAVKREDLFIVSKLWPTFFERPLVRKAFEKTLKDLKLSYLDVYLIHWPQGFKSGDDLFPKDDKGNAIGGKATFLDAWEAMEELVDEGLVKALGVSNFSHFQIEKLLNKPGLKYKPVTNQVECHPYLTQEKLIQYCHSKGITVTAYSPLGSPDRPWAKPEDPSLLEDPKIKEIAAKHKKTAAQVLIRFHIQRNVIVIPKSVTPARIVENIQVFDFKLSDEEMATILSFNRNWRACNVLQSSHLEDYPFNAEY

For `O=C(O)Cn1c2c(c3cc(O)ccc31)CCN(Cc1ccccc1)C2=S`, the figures for the IC50 in assay [1] and in assay [2] were 200 nM and 1900 nM, respectively.

For `O=C(O)Cn1c2c(c3ccc(Cl)cc31)CCN(Cc1ccccc1)C2=S`, the values for the IC50 in assay [3], in assay [1] and in assay [2] were 21000 nM, 240 nM and 1400 nM, respectively.

With `O=C(O)Cn1c2c(c3cc(Br)ccc31)CCN(Cc1ccccc1)C2=S`, the IC50 (usually the concentration that inhibits the measured activity by half) in assay [3] was determined as 11000 nM; in assay [1] it was 320 nM; in assay [2] it was 1400 nM.

For the compound `O=C(O)Cn1c2c(c3cc(F)ccc31)CCN(Cc1ccc(C(F)(F)F)cc1)C2=S`, the IC50 in assay [1] is 10000 nM; in assay [2] it was 1600 nM.

With `O=C(O)Cn1c2c(c3ccccc31)CCN(Cc1ccc(Br)cc1)C2=S`, the figures for the IC50 in assay [3], in assay [1] and in assay [2] were 14000 nM, 5900 nM and 850 nM, respectively.

Turning to `O=C(O)Cn1c2c(c3ccccc31)CCN(c1ccccc1)C2=S`, the IC50 is 31000 nM in assay [1] and 21000 nM in assay [2].

On to `O=C(O)Cn1c2c(c3cc(F)ccc31)CCN(Cc1ccc(Br)cc1F)C2=S`, for which the results for the IC50 in assay [1] and in assay [2] were 1700 nM and 280 nM, respectively.

Regarding `O=C(O)Cn1c2c(c3cc(Cl)ccc31)CCN(Cc1ccccc1)C2=S`, the results for the IC50 in assay [3], in assay [1] and in assay [2] were 15000 nM, 350 nM and 1400 nM, respectively.

Consider `O=C(O)Cn1c2c(c3c(F)cc(F)cc31)CCN(CCc1ccccc1)C2=S`, for which the IC50 in assay [1] amounted to 1800 nM; in assay [2] it was 400 nM.

As for `O=C(O)Cn1c2c(c3ccccc31)CCN(Cc1ccc(Br)cc1F)C2=S`, the IC50 in assay [1] came to 4200 nM; in assay [2], 680 nM.

On to `O=C(O)Cn1c2c(c3cc(F)ccc31)CCN(Cc1ccccc1)C2=S`, for which the IC50 amounted to 19000 nM in assay [3], 230 nM in assay [1] and 3300 nM in assay [2].

As to `O=C(O)Cn1c2c(c3c(Cl)cc(Cl)cc31)CCN(Cc1ccccc1)C2=S`, the figures for the IC50 in assay [3], in assay [1] and in assay [2] were 10000 nM, 190 nM and 6100 nM, respectively.

Consider `O=C(O)Cn1c2c(c3cc(I)ccc31)CCN(Cc1ccccc1)C2=S`, for which the IC50 in assay [3] was 11000 nM; in assay [1], 190 nM; in assay [2] it was 1400 nM.

For the compound `O=C(O)Cn1c2c(c3cc(C(=O)O)ccc31)CCN(Cc1ccccc1)C2=S`, the IC50 in assay [3] was determined as 53000 nM; in assay [1] it was 170 nM; in assay [2], 40000 nM. Besides, the Kii in assay [4] turned out to be 220 nM. For the same compound, the Kis in assay [4] amounted to 55 nM.

Take `O=C(O)Cn1c2c(c3ccccc31)CCN(Cc1ccccc1)C2=S`: the IC50 in assay [3] came out at 9500 nM; in assay [1], 220 nM; in assay [2], 5100 nM.

For the compound `COc1ccc2c(c1)c1c(n2CC(=O)O)C(=S)N(Cc2ccccc2)CC1`, the half-inhibitory concentration (IC50) worked out at 12000 nM in assay [3], 150 nM in assay [1] and 2900 nM in assay [2]. In assay [4], this compound had a Kii of 180 nM. For the same compound, in assay [4], the Kis was determined as 79 nM.

With `CC(C)c1ccc2c(c1)c1c(n2CC(=O)O)C(=S)N(Cc2ccccc2)CC1`, the IC50 in assay [3] turned out to be 16000 nM; in assay [1], 200 nM; in assay [2], 3400 nM.

Take `O=C(O)Cn1c2c(c3c(F)cc(F)cc31)CCN(Cc1ccccc1)C2=S`: the IC50 in assay [3] is 4700 nM; in assay [1], 1300 nM; in assay [2] it was 480 nM.

With `O=C(O)Cn1c2c(c3ccccc31)CCN(Cc1ccc(C(F)(F)F)cc1)C2=S`, the figures for the IC50 in assay [1] and in assay [2] were 14000 nM and 3800 nM, respectively.
